Results taken from patent US12071441B2, “10-(di(phenyl)methyl)-4-hydroxy-8,9,9A,10-tetrahydro-7H-pyrrolo[1′,2′:4,5]pyrazino[1,2-b]pyridazine-3,5-dione derivatives and related compounds as inhibitors of the orthomyxovirus replication for treating influenza” (Novartis AG, priority 2018, dated 2024).

Key:
Experiment in all cases: microbe, parasite or virus in culture
Type in all cases: cell-based
[1] = tested on: influenza A virus minigenome (PB2, PB1, PA, NP; luciferase reporter) in 293T cells, RNP_Hubei; conditions: HEK-293T, 48 h
[2] = tested on: influenza A virus minigenome (PB2, PB1, PA, NP; luciferase reporter) in 293T cells, RNP_Alaska; conditions: HEK-293T, 48 h
[3] = tested on: influenza A virus minigenome (PB2, PB1, PA, NP; luciferase reporter) in 293T cells, RNP_CAL; conditions: HEK-293T, 48 h, read-out: RNP_CAL_EC50

SMILES | EC50 [1] [nM] | EC50 [2] [nM] | EC50 [3] [nM]
O=C1c2c(O)c(=O)cnn2[C@@H]([C@@H](c2ccc(F)cc2)c2cccc(C(F)(F)F)c2)[C@H]2CCCN12 [Example 1, (9aR,10S)-10-((S)-(4-fluorophenyl)(3-(trifluoromethyl)phenyl)methyl)-4-hydroxy-8,9,9a,10-tetrahydro-7H-pyrrolo[1′,2′:4,5]pyrazino[1,2-b]pyridazine-3,5-dione] | < 100 | < 100 | < 100
O=C1c2c(O)c(=O)cnn2[C@@H]([C@@H](c2ccc(F)cc2)c2ccc(C(F)(F)F)cc2)[C@H]2CCCN12 [Example 2, (9aR,10S)-10-((R)-(4-fluorophenyl)(4-(trifluoromethyl)phenyl)methyl)-4-hydroxy-8,9,9a,10-tetrahydro-7H-pyrrolo[1′,2′:4,5]pyrazino[1,2-b]pyridazine-3,5-dione] | 100 to 1000 | 100 to 1000 | 100 to 1000
O=C1c2c(O)c(=O)cnn2[C@@H]([C@H](c2cccc(C(F)(F)F)c2)c2cccc(F)c2F)[C@H]2CCCN12 [Example 3, (9aR,10S)-10-((R)-(2,3-difluorophenyl)(3-(trifluoromethyl)phenyl)methyl)-4-hydroxy-8,9,9a,10-tetrahydro-7H-pyrrolo[1′,2′:4,5]pyrazino[1,2-b]pyridazine-3,5-dione] | < 100 | < 100 | < 100
O=C1c2c(O)c(=O)cnn2[C@@H]([C@@H](c2ccc(F)cc2)c2cccc(OC(F)(F)F)c2)[C@H]2CCCN12 [Example 4, (9aR,10S)-10-((S)-(4-fluorophenyl)(3-(trifluoromethoxy)phenyl)methyl)-4-hydroxy-8,9,9a,10-tetrahydro-7H-pyrrolo[1′,2′:4,5]pyrazino[1,2-b]pyridazine-3,5-dione] | < 100 | 100 to 1000 | < 100
O=C1c2c(O)c(=O)cnn2[C@@H]([C@@H](c2ccc(F)cc2)c2ccc(OC(F)(F)F)cc2)[C@H]2CCCN12 [Example 5, (9aR,10S)-10-((R)-(4-fluorophenyl)(4-(trifluoromethoxy)phenyl)methyl)-4-hydroxy-8,9,9a,10-tetrahydro-7H-pyrrolo[1′,2′:4,5]pyrazino[1,2-b]pyridazine-3,5-dione] | 100 to 1000 | 100 to 1000 | 100 to 1000
COc1c2n(ncc1=O)[C@@H]([C@H](c1ccccc1)c1cccc(F)c1F)[C@H]1CCCN1C2=O [Example 38, (9aR,10S)-10-((R)-(2,3-difluorophenyl)(phenyl)methyl)-4-methoxy-8,9,9a,10-tetrahydro-7H-pyrrolo[1′,2′:4,5]pyrazino[1,2-b]pyridazine-3,5-dione] | ≥ 1000 | ≥ 1000 | –
COC(C)(C)C(=O)OCOc1c2n(ncc1=O)[C@@H]([C@H](c1ccccc1)c1cccc(F)c1F)[C@H]1CCCN1C2=O [Example 41, (((9aR,10S)-10-((R)-(2,3-difluorophenyl)(phenyl)methyl)-3,5-dioxo-3,5,8,9,9a,10-hexahydro-7H-pyrrolo[1′,2′:4,5]pyrazino[1,2-b]pyridazin-4-yl)oxy)methyl 2-methoxy-2-methylpropanoate] | < 100 | < 100 | –
COCCOC(=O)OCOc1c2n(ncc1=O)[C@@H]([C@H](c1ccccc1)c1cccc(F)c1F)[C@H]1CCCN1C2=O [Example 46, (((9aR,10S)-10-((R)-(2,3-difluorophenyl)(phenyl)methyl)-3,5-dioxo-3,5,8,9,9a,10-hexahydro-7H-pyrrolo[1′,2′:4,5]pyrazino[1,2-b]pyridazin-4-yl)oxy)methyl (2-methoxyethyl) carbonate] | ≥ 1000 | ≥ 1000 | –
CCN(C)C(=O)Oc1c2n(ncc1=O)[C@@H]([C@H](c1ccccc1)c1cccc(F)c1F)[C@H]1CCCN1C2=O [Example 47, (9aR,10S)-10-((R)-(2,3-difluorophenyl)(phenyl)methyl)-3,5-dioxo-3,5,8,9,9a,10-hexahydro-7H-pyrrolo[1′,2′:4,5]pyrazino[1,2-b]pyridazin-4-yl ethyl(methyl)carbamate] | ≥ 1000 | ≥ 1000 | –
COC(=O)Oc1c2n(ncc1=O)[C@@H]([C@H](c1ccccc1)c1cccc(F)c1F)[C@H]1CCCN1C2=O [Example 54, (9aR,10S)-10-((R)-(2,3-difluorophenyl)(phenyl)methyl)-3,5-dioxo-3,5,8,9,9a,10-hexahydro-7H-pyrrolo[1′,2′:4,5]pyrazino[1,2-b]pyridazin-4-yl methyl carbonate] | < 100 | < 100 | –
COCCC(=O)OCOc1c2n(ncc1=O)[C@@H]([C@H](c1ccccc1)c1cccc(F)c1F)[C@H]1CCCN1C2=O [Example 64, (((9aR,10S)-10-((R)-(2,3-difluorophenyl)(phenyl)methyl)-3,5-dioxo-3,5,8,9,9a,10-hexahydro-7H-pyrrolo[1′,2′:4,5]pyrazino[1,2-b]pyridazin-4-yl)oxy)methyl 3-methoxypropanoate] | ≥ 1000 | ≥ 1000 | –
O=C(Oc1c2n(ncc1=O)[C@@H]([C@H](c1ccccc1)c1cccc(F)c1F)[C@H]1CCCN1C2=O)N1CCC(N2CCCCC2)CC1 [Example 65, (9aR,10S)-10-((R)-(2,3-difluorophenyl)(phenyl)methyl)-3,5-dioxo-3,5,8,9,9a,10-hexahydro-7H-pyrrolo[1′,2′:4,5]pyrazino[1,2-b]pyridazin-4-yl [1,4′-bipiperidine]-1′-carboxylate] | ≥ 1000 | ≥ 1000 | –
O=C(Oc1c2n(ncc1=O)[C@@H]([C@H](c1ccccc1)c1cccc(F)c1F)[C@H]1CCCN1C2=O)N1CCOCC1 [Example 66, (9aR,10S)-10-((R)-(2,3-difluorophenyl)(phenyl)methyl)-3,5-dioxo-3,5,8,9,9a,10-hexahydro-7H-pyrrolo[1′,2′:4,5]pyrazino[1,2-b]pyridazin-4-yl morpholine-4-carboxylate] | ≥ 1000 | ≥ 1000 | –
COc1c2n(ncc1=O)[C@@H]([C@H](c1ccc(F)cc1)c1cccc(F)c1F)[C@H]1CCCN1C2=O [Example 81, (9aR,10S)-10-((R)-(2,3-difluorophenyl)(4-fluorophenyl)methyl)-4-methoxy-8,9,9a,10-tetrahydro-7H-pyrrolo[1′,2′:4,5]pyrazino[1,2-b]pyridazine-3,5-dione] | ≥ 1000 | ≥ 1000 | –
CN(C)C(=O)Oc1c2n(ncc1=O)[C@@H]([C@H](c1ccc(F)cc1)c1cccc(F)c1F)[C@H]1CCCN1C2=O [Example 87, (9aR,10S)-10-((R)-(2,3-difluorophenyl)(4-fluorophenyl)methyl)-3,5-dioxo-3,5,8,9,9a,10-hexahydro-7H-pyrrolo[1′,2′:4,5]pyrazino[1,2-b]pyridazin-4-yl dimethylcarbamate] | ≥ 1000 | ≥ 1000 | –
CC(C)OC(=O)OCOc1c2n(ncc1=O)[C@@H]([C@H](c1ccc(F)cc1)c1cccc(F)c1F)[C@H]1CCCN1C2=O [Example 89, (((9aR,10S)-10-((R)-(2,3-difluorophenyl)(4-fluorophenyl)methyl)-3,5-dioxo-3,5,8,9,9a,10-hexahydro-7H-pyrrolo[1′,2′:4,5]pyrazino[1,2-b]pyridazin-4-yl)oxy)methyl isopropyl carbonate] | < 100 | < 100 | –
COC(C)(C)C(=O)Oc1c2n(ncc1=O)[C@@H]([C@H](c1ccc(F)cc1)c1cccc(F)c1F)[C@H]1CCCN1C2=O [Example 90, (9aR,10S)-10-((R)-(2,3-difluorophenyl)(4-fluorophenyl)methyl)-3,5-dioxo-3,5,8,9,9a,10-hexahydro-7H-pyrrolo[1′,2′:4,5]pyrazino[1,2-b]pyridazin-4-yl 2-methoxy-2-methylpropanoate] | < 100 | < 100 | –
CC(C)(C)OC(=O)OCOc1c2n(ncc1=O)[C@@H]([C@H](c1ccc(F)cc1)c1cccc(F)c1F)[C@H]1CCCN1C2=O [Example 91, tert-butyl ((((9aR,10S)-10-((R)-(2,3-difluorophenyl)(4-fluorophenyl)methyl)-3,5-dioxo-3,5,8,9,9a,10-hexahydro-7H-pyrrolo[1′,2′:4,5]pyrazino[1,2-b]pyridazin-4-yl)oxy)methyl) carbonate] | < 100 | < 100 | –
CN(C)C(=O)OCOc1c2n(ncc1=O)[C@@H]([C@H](c1cccc(F)c1)c1cccc(F)c1F)[C@H]1CCCN1C2=O [Example 101, (((9aR,10S)-10-((R)-(2,3-difluorophenyl)(3-fluorophenyl)methyl)-3,5-dioxo-3,5,8,9,9a,10-hexahydro-7H-pyrrolo[1′,2′:4,5]pyrazino[1,2-b]pyridazin-4-yl)oxy)methyl dimethylcarbamate] | 100 to 1000 | ≥ 1000 | –
CC(C)OC(=O)Oc1c2n(ncc1=O)[C@@H]([C@H](c1cccc(F)c1)c1cccc(F)c1F)[C@H]1CCCN1C2=O [Example 103, (9aR,10S)-10-((R)-(2,3-difluorophenyl)(3-fluorophenyl)methyl)-3,5-dioxo-3,5,8,9,9a,10-hexahydro-7H-pyrrolo[1′,2′:4,5]pyrazino[1,2-b]pyridazin-4-yl isopropyl carbonate] | < 100 | < 100 | –
CC(C)(C)C(=O)OCOc1c2n(ncc1=O)[C@@H]([C@H](c1cccc(F)c1)c1cccc(F)c1F)[C@H]1CCCN1C2=O [Example 109, (((9aR,10S)-10-((R)-(2,3-difluorophenyl)(3-fluorophenyl)methyl)-3,5-dioxo-3,5,8,9,9a,10-hexahydro-7H-pyrrolo[1′,2′:4,5]pyrazino[1,2-b]pyridazin-4-yl)oxy)methyl pivalate] | < 100 | < 100 | –
CC(C)(C)C(=O)Oc1c2n(ncc1=O)[C@@H]([C@H](c1cccc(F)c1)c1cccc(F)c1F)[C@H]1CCCN1C2=O [Example 111, (9aR,10S)-10-((R)-(2,3-difluorophenyl)(3-fluorophenyl)methyl)-3,5-dioxo-3,5,8,9,9a,10-hexahydro-7H-pyrrolo[1′,2′:4,5]pyrazino[1,2-b]pyridazin-4-yl pivalate] | < 100 | < 100 | –
